Data: patent publication US20240335462A1, “SULFUR/PHOSPHORUS-CONTAINING ARYL COMPOUND AND APPLICATION THEREOF” (MEDSHINE DISCOVERY INC., priority 2021, published 2024)

Columns and labels:
[1] = tested on: JH2 pseudokinase domain of TYK2; details: background statement; cited from earlier work
[2] = tested on: TYK2 signaling pathway (IFN-α/pSTAT1); experiment: IFN-α-induced STAT1 phosphorylation in mouse whole blood; assay type: cell-based; details: CD3+ cells
Description: The purpose of this experiment was to detect the inhibitory effect of the compound on the JAK-STAT signaling pathway activated by IFN-α in mouse whole blood. Fresh mouse whole blood was collected and placed in a 96-well plate. The test compound was added and incubated for 1 hour, followed by stimulation with IFN-α. The corresponding STAT1 phosphorylation level in the CD3^+ cell population was analyzed using flow cytometer by means of surface antibody staining and intracellular phosphorylated antibody staining. The IFN-α-induced STAT1 phosphorylation in mouse whole blood is dependent on TYK2 activity. By detecting the inhibitory activity of the compound on downstream […] phosphorylation, the half maximal inhibitory concentration (IC50) of the compound on TYK2 signaling pathway activity can be determined.
• a) The compound was prepared into a 10 mM solution with dimethyl sulfoxide (DMSO), and diluted in DMSO to a solution with various concentrations, 500 times the final concentration. • b) 5 μL of the diluted compound was transferred to 120 μL of phosphate buffered saline (PBS) containing 0.1% bovine serum albumin (BSA). • c) Positive and negative control groups were set up, with both finally containing 0.2% DMSO.
• a) 67.5 μL of mouse whole blood was added to each well of a 96-well cell culture plate. • b) 3.5 μL of the diluted compound was added thereto and mixed thoroughly. • c) The plate was incubated in a 37° C. incubator for 60 minutes. • d) Mouse interferon recombinant protein was diluted 125-fold in PBS containing 0.1% BSA, and anti-mouse CD3 antibody was diluted 5-fold in PBS containing 0.1% BSA. 5 μL of diluted anti-mouse CD3 antibody and 4 μL of diluted mouse interferon recombinant protein were added to each well. • e) The plate was incubated in a 37° C. incubator for 30 minutes. • f) All cells were transferred to a 96-well deep well plate, and 1 mL of 37° C. pre-warmed 1× lysis/fixation buffer was added thereto. • g) The cells were incubated in the dark at 37° C. for 10 minutes. • h) After centrifugation at 600 g for 5 minutes, the supernatant was discarded, and the cells were washed twice with 1 mL of PBS by centrifugation. • i) 0.4 mL per well of permeabilization buffer was added to the cell pellet and mixed thoroughly. The cells were incubated in the dark at 4° C. for 30 minutes. • j) After centrifugation at 600 g for 5 minutes, the supernatant was discarded, and the cells were washed twice with 1 mL of flow cytometry staining buffer (PBS+0.2% BSA+1 mM EDTA) by centrifugation. • k) Anti-STAT1 antibody was diluted 65-fold in flow cytometry staining buffer, and added to cell-containing wells at 100 μL per well and mixed thoroughly. • l) The cells were incubated at room temperature for 40 minutes. • m) 1 mL per well of flow cytometry staining buffer was added, and the cells were washed twice by centrifugation at 600 g for 5 minutes. • n) The supernatant was discarded, and the cell pellet was resuspended in 300 μL of flow cytometry staining buffer. • o) The samples were loaded for analysis using the Beckman CytoFlex flow cytometer.
Data were analyzed using FlowJo software. Curve fitting was performed and the IC50 was calculated using GraphPad Prism 8 software.

[3] = target: Ba/F3-FL-TYK2-E957D cells (Homo sapiens, UniProt P29597, E957D, cells depend on it); experiment: Proliferation of Ba/F3-FL-TYK2-E957D cells (CellTiter-Glo); assay type: cell-based, mouse; details: 72 hours, read-out: Half maximal inhibitory concentration IC50 for cells Ba/F3-FL-TYK2-E957D
Chain of Ba/F3-FL-TYK2-E957D cells (P29597 whole entry E957D): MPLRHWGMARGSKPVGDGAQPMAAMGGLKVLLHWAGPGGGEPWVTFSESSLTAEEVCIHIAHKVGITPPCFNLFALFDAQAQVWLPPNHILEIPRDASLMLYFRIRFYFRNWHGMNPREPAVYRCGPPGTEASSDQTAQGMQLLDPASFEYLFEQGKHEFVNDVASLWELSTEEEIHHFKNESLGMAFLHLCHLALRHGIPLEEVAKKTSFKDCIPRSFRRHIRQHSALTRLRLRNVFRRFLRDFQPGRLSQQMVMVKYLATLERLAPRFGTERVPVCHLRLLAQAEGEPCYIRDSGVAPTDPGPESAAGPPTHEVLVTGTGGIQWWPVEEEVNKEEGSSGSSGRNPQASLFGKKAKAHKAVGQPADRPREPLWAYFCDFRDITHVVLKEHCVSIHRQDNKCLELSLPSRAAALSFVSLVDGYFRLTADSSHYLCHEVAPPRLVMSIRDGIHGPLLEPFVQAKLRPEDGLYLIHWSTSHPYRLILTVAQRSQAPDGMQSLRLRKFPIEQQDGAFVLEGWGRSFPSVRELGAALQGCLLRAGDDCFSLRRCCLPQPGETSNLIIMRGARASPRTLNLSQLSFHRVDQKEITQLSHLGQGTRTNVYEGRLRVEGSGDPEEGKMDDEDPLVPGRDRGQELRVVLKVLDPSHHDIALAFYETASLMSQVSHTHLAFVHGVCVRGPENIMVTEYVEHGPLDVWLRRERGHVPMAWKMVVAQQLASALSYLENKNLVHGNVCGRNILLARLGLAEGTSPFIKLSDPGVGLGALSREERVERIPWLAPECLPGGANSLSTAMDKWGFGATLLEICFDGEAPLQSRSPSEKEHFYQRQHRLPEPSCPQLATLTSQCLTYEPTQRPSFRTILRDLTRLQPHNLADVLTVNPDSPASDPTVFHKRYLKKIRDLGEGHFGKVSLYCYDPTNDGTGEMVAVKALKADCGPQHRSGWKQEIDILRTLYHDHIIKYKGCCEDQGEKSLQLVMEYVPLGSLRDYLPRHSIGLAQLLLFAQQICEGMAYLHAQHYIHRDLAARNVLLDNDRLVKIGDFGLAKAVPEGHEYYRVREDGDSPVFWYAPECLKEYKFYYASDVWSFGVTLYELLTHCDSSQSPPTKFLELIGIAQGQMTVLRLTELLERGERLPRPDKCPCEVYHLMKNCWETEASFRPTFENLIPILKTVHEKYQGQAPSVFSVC
Text: (§1) Adenosine triphosphate (ATP) serves as a universal energy carrier in various life processes, representing the smallest unit of energy storage and transfer. The CellTiter-Glo™ Luminescent Cell Viability Assay Kit utilizes luciferase as a detection agent. During the luminescent process, luciferase requires the participation of ATP. By adding CellTiter-Glo™ reagent to the cell culture medium and measuring the luminescence, the light signal was directly proportional to the amount of ATP in the system, and ATP was positively correlated with the number of viable cells. Therefore, cell proliferation can be detected by measuring ATP content using the CellTiter-Glo kit. In this test, the cell lines used were Ba/F3-FL-TYK2-E957D and Ba/F3-TEL-TYK2. Ba/F3-FL-TYK2-E957D cells can stably express the exogenously introduced human TYK2-E957D gene, and the TYK2-E957D gene sequence contains both JH1 and JH2 domains. On the other hand, Ba/F3-TEL-TYK2 cells can stably express the exogenously introduced human TEL-TYK2 gene, and the TEL-TYK2 gene sequence contains only the JH1 domain of TYK2.
(§2) The cell lines were cultured in an incubator at 37° C. with 5% CO2. Regular passaging was performed, and cells in the logarithmic growth phase were selected for plating.
(§3) • a) The test compounds were prepared into a 10 mM solution with DMSO, and then diluted to 0.3 or 1 mM with DMSO. • b) Preparation of 1000× compound storage plate (tube): The compounds were 3-fold serially diluted from the highest concentration to the lowest concentration, creating 9 different concentrations. • c) Preparation of 20× compound working solution: 49 μL of cell culture medium was added to a flat-bottomed 96-well transparent drug plate. From the 1000× compound storage plate, 1 μL of the compound was pipetted into the cell culture medium in the 96-well transparent drug plate. In the solvent control, 1 μL of DMSO was added. After the compound or DMSO was added, the mixture was homogenized using a multi-channel pipette.
(§4) • a) Cells were stained with trypan blue and viable cells were counted to ensure a cell viability of 90% or more. • b) 95 μL of cell suspension (2000 cells/well) was added to each well of the compound assay cell plate, and cell-free culture medium containing 0.1% DMSO was added to the Min control wells. • c) Administration in the compound assay cell plate: 5 μL of 20× compound working solution was added to the cell culture plate. 5 μL of DMSO-cell culture medium mixture was added to the Max control wells. The final concentration of DMSO was 0.1%. • d) The culture plate was then incubated in an incubator at 37° C. with 5% CO2 for 72 hours.
(§5) The following steps were conducted in accordance with the instructions of the Promega CellTiter-Glo Luminescent Cell Viability Assay Kit (Promega-G7573). • a) CellTiter-Glo buffer was thawed and brought to room temperature. • b) CellTiter-Glo substrate was also brought to room temperature. • c) CellTiter-Glo buffer was added to a bottle of CellTiter-Glo substrate to dissolve the substrate, thereby preparing CellTiter-Glo working solution. • d) The mixture was slowly vortexed and shaken to be fully dissolved. • e) The cell culture plate was removed and allowed to equilibrate to room temperature for 10 minutes. • f) 50 μL (equal to half the volume of cell culture medium in each well) of CellTiter-Glo working solution was added to each well. • g) The culture plate was shaken on an orbital shaker for 2 minutes to induce cell lysis. • h) The plate was then left at room temperature for 10 minutes to stabilize the luminescent signal. • i) The luminescent signal was detected using a SpectraMax Paradigm plate reader.
(§6) Data analysis was conducted using GraphPad Prism 5.0 software. Nonlinear S-curve regression was employed to fit the data and generate dose-response curves. From these curves, the IC50 values were calculated.

[4] = tested on: Ba/F3-TEL-TYK2 cells; experiment: Proliferation of Ba/F3-TEL-TYK2 cells (CellTiter-Glo); assay type: cell-based; details: 72 hours, read-out: Half maximal inhibitory concentration IC50 for cells Ba/F3-TEL-TYK2
Text: as §1, §2, §3, §4, §5, §6

| Structure (SMILES) | kinase selectivity [1] | IC50 [2] | GI50 [3] | IC50 [4] |
| --- | --- | --- | --- | --- |
| [2H]C([2H])([2H])NC(=O)c1nnc(NC(=O)C2CC2)cc1Nc1cccc(-c2ncn(C)n2)c1OC [BMS-986165] | > 1000 fold | – | – | – |
| COc1c(Nc2cc(NC(=O)C3CC3)ncc2C(N)=O)cccc1-c1ccc(S(=O)(=O)C(C)C)cn1 [Trifluoroacetate of WX-034] | – | 93.2 nM | 0.1 nM | > 10000 nM |
| COc1c(Nc2cc(NC(=O)C3CC3)ncc2C(N)=O)cccc1-c1ncc(S(=O)(=O)C(C)C)cn1 [WX-033] | – | 316 nM | 0.1 nM | > 10000 nM |
